According to ChEMBL document CHEMBL4184182, “Studies on interactions of carbazole derivatives with DNA, cell image, and cytotoxicity” (Bioorg Med Chem, 2018):

Experiments:
Quadruplex DNA [1] = experiment: Binding affinity to human telomeric G-quadruplex DNA assessed as absorption maximum at 5 uM after 5 mins in presence of sodium ion by fluorescence titration method (reference value: 405 nanometer); type: nucleic-acid assay
[2] = Drug uptake in DNase-1 treated human HepG2 cell nucleus at 10 uM after 2.5 hrs by confocal microscopic method; type: ADME, subcellular; details: hepg2, 2.5 h
Quadruplex DNA [3] = experiment: Binding affinity to c-Kit G-quadruplex DNA (unknown origin) assessed as emission maximum at 5 uM after 5 mins by fluorescence titration method (reference value: 559 nanometer); type: nucleic-acid assay
Quadruplex DNA [4] = experiment: Binding affinity to human telomeric G-quadruplex DNA assessed as enhanced fluorescence time at 5 uM after 5 mins in presence of sodium ion by fluorescence titration assay relative to control; type: nucleic-acid assay
Quadruplex DNA [5] = experiment: Binding affinity to human telomeric G-quadruplex DNA assessed as compound fluorescence life time at 5 uM after 5 mins in presence of sodium ion by fluorescence titration method (reference value: 3.626 nanoseconds); type: nucleic-acid assay
[6] = Drug uptake in RNase-A treated human HepG2 cell cytoplasm at 10 uM after 2.5 hrs by confocal microscopic method; type: ADME, subcellular; details: hepg2, 2.5 h
[7] = Drug uptake in fixed human HepG2 cell nucleus at 10 uM after 2.5 hrs by confocal microscopic method; type: ADME, subcellular; details: hepg2, 2.5 h
Quadruplex DNA [8] = experiment: Binding affinity to Bcl2 G-quadruplex DNA (unknown origin) assessed as red shift at 15 uM after 5 mins by UV-Visible absorbance titration method; type: nucleic-acid assay
dsDNA [9] = experiment: Binding affinity to 26-mer duplex DNA (unknown origin) assessed as absorption maximum at 5 uM after 5 mins by fluorescence titration method (reference value: 405 nanometer); type: nucleic-acid assay
Quadruplex DNA [10] = experiment: Binding affinity to Bcl2 G-quadruplex DNA (unknown origin) assessed as enhanced fluorescence ratio at 5 uM after 5 mins by fluorescence titration assay relative to control; type: nucleic-acid assay
Quadruplex DNA [11] = experiment: Binding affinity to c-Myc G-quadruplex DNA (unknown origin) assessed as absorption maximum at 5 uM after 5 mins by fluorescence titration method (reference value: 405 nanometer); type: nucleic-acid assay
Calf thymus DNA = experiment: Binding affinity to calf thymus DNA assessed as red shift at 15 uM after 5 mins by UV-Visible absorbance titration method; type: nucleic-acid assay; details: Bos taurus
[12] = Drug uptake in human HepG2 cell nucleus at 10 uM after 2.5 hrs by confocal microscopic method; type: ADME, subcellular; details: hepg2, 2.5 h
Quadruplex DNA [13] = experiment: Binding affinity to human telomeric G-quadruplex DNA assessed as hyperchromicity at 15 uM after 5 mins in presence of sodium ion by UV-Visible absorbance titration method; type: nucleic-acid assay
Quadruplex DNA [14] = experiment: Binding affinity to Bcl2 G-quadruplex DNA (unknown origin) assessed as compound fluorescence life time at 5 uM after 5 mins by fluorescence titration method (reference value: 3.626 nanoseconds); type: nucleic-acid assay
Quadruplex DNA [15] = experiment: Binding affinity to c-Kit G-quadruplex DNA (unknown origin) assessed as compound fluorescence life time at 5 uM after 5 mins by fluorescence titration method (reference value: 3.626 nanoseconds); type: nucleic-acid assay
Quadruplex DNA [16] = experiment: Binding affinity to human telomeric G-quadruplex DNA assessed as enhanced fluorescence time at 5 uM after 5 mins in presence of potassium ion by fluorescence titration assay relative to control; type: nucleic-acid assay
Quadruplex DNA [17] = experiment: Binding affinity to human telomeric G-quadruplex DNA assessed as absorption maximum at 5 uM after 5 mins in presence of potassium ion by fluorescence titration method (reference value: 405 nanometer); type: nucleic-acid assay
Quadruplex DNA [18] = experiment: Binding affinity to c-Myc G-quadruplex DNA (unknown origin) assessed as hyperchromicity at 15 uM after 5 mins by UV-Visible absorbance titration method; type: nucleic-acid assay
Quadruplex DNA [19] = experiment: Binding affinity to human telomeric G-quadruplex DNA assessed as enhanced fluorescence ratio at 5 uM after 5 mins in presence of sodium ion by fluorescence titration assay relative to control; type: nucleic-acid assay
Quadruplex DNA [20] = experiment: Binding affinity to human telomeric G-quadruplex DNA assessed as emission maximum at 5 uM after 5 mins in presence of sodium ion by fluorescence titration method (reference value: 559 nanometer); type: nucleic-acid assay
Quadruplex DNA [21] = experiment: Binding affinity to c-Myc G-quadruplex DNA (unknown origin) assessed as red shift at 15 uM after 5 mins by UV-Visible absorbance titration method; type: nucleic-acid assay
Quadruplex DNA [22] = experiment: Binding affinity to c-Kit G-quadruplex DNA (unknown origin) assessed as compound fluorescence life time at 5 uM after 5 mins by fluorescence titration method (reference value: 0.192 nanoseconds); type: nucleic-acid assay
Quadruplex DNA [23] = experiment: Binding affinity to human telomeric G-quadruplex DNA assessed as emission maximum at 5 uM after 5 mins in presence of sodium ion by fluorescence titration method (reference value: 584 nanometer); type: nucleic-acid assay
dsDNA [24] = experiment: Binding affinity to 26-mer duplex DNA (unknown origin) assessed as hyperchromicity at 10 uM after 5 mins by UV-Visible absorbance titration method; type: nucleic-acid assay
Quadruplex DNA [25] = experiment: Binding affinity to human telomeric G-quadruplex DNA assessed as compound fluorescence life time at 5 uM after 5 mins in presence of potassium ion by fluorescence titration method (reference value: 0.192 nanoseconds); type: nucleic-acid assay
Quadruplex DNA [26] = experiment: Binding affinity to human telomeric G-quadruplex DNA assessed as red shift at 10 uM after 5 mins in presence of potassium ion by UV-Visible absorbance titration method; type: nucleic-acid assay
Quadruplex DNA [27] = experiment: Binding affinity to c-Kit G-quadruplex DNA (unknown origin) assessed as hyperchromicity at 10 uM after 5 mins by UV-Visible absorbance titration method; type: nucleic-acid assay
Quadruplex DNA [28] = experiment: Binding affinity to c-Myc G-quadruplex DNA (unknown origin) assessed as absorption maximum at 5 uM after 5 mins by fluorescence titration method (reference value: 453 nanometer); type: nucleic-acid assay
Quadruplex DNA [29] = experiment: Binding affinity to human telomeric G-quadruplex DNA assessed as absorption maximum at 5 uM after 5 mins in presence of sodium ion by fluorescence titration method (reference value: 453 nanometer); type: nucleic-acid assay
Quadruplex DNA [30] = experiment: Binding affinity to human telomeric G-quadruplex DNA assessed as hyperchromicity at 10 uM after 5 mins in presence of sodium ion by UV-Visible absorbance titration method; type: nucleic-acid assay
dsDNA [31] = experiment: Binding affinity to 26-mer duplex DNA (unknown origin) assessed as compound fluorescence life time at 5 uM after 5 mins by fluorescence titration method (reference value: 0.192 nanoseconds); type: nucleic-acid assay
Quadruplex DNA [32] = experiment: Binding affinity to human telomeric G-quadruplex DNA assessed as emission maximum at 5 uM after 5 mins in presence of potassium ion by fluorescence titration method (reference value: 584 nanometer); type: nucleic-acid assay
Quadruplex DNA [33] = experiment: Binding affinity to c-Kit G-quadruplex DNA (unknown origin) assessed as emission maximum at 5 uM after 5 mins by fluorescence titration method (reference value: 584 nanometer); type: nucleic-acid assay
[34] = Drug uptake in human HepG2 cell nucleus at 3 uM after 30 mins by H33258.staining based confocal microscopic method; type: ADME, subcellular; details: hepg2, 0.5 h
Quadruplex DNA [35] = experiment: Binding affinity to c-Kit G-quadruplex DNA (unknown origin) assessed as absorption maximum at 5 uM after 5 mins by fluorescence titration method (reference value: 453 nanometer); type: nucleic-acid assay
[36] = Drug uptake in DNase-1 treated human HepG2 cell nucleus at 3 uM after 30 mins by H33258.staining based confocal microscopic method; type: ADME, subcellular; details: hepg2, 0.5 h
Quadruplex DNA [37] = experiment: Binding affinity to Bcl2 G-quadruplex DNA (unknown origin) assessed as absorption maximum at 5 uM after 5 mins by fluorescence titration method (reference value: 453 nanometer); type: nucleic-acid assay

Structure (SMILES): CCn1c2ccccc2c2cc(/C=C(\C#N)c3ccc[n+](C)c3)ccc21.[I-]
- Activity (Quadruplex DNA [1]): 422 nm
- Drug uptake [2]: Not Active
- Activity (Quadruplex DNA [3]): 550 nm
- fold change (FC) (Quadruplex DNA [4]): 11.2 to 20.6
- Time (Quadruplex DNA [5]): 7.25 nanoseconds
- Drug uptake [6]: Not Active
- Drug uptake [7]: Active
- Activity (Quadruplex DNA [8]): 29 nm
- Activity (dsDNA [9]): 422 nm
- Ratio (Quadruplex DNA [10]): > 6
- Activity (Quadruplex DNA [11]): 430 nm
- Activity (Calf thymus DNA): 23 nm
- Drug uptake [12]: Not Active
- Activity (Quadruplex DNA [13]): 37.9%
- Time (Quadruplex DNA [14]): 6.55 nanoseconds
- Time (Quadruplex DNA [15]): 7.04 nanoseconds
- fold change (FC) (Quadruplex DNA [16]): 11.2 to 20.6
- Activity (Quadruplex DNA [17]): 428 nm
- Activity (Quadruplex DNA [18]): 41.7%
- Ratio (Quadruplex DNA [19]): > 6
- Activity (Quadruplex DNA [20]): 545 nm
- Activity (Quadruplex DNA [21]): 25 nm

Structure (SMILES): CCn1c2ccccc2c2cc(/C=C/c3sc4ccccc4[n+]3CC)ccc21.[I-]
- Time (Quadruplex DNA [22]): 1.51 nanoseconds
- Activity (Quadruplex DNA [23]): 578 nm
- Activity (dsDNA [24]): 24.6%
- Time (Quadruplex DNA [25]): 2.09 nanoseconds
- Activity (Quadruplex DNA [26]): 21 nm
- Activity (Quadruplex DNA [27]): 55.1%
- Activity (Quadruplex DNA [28]): 506 nm
- Activity (Quadruplex DNA [29]): 477 nm
- Activity (Quadruplex DNA [30]): 48.4%
- Time (dsDNA [31]): 2.69 nanoseconds
- Activity (Quadruplex DNA [32]): 579 nm
- Activity (Quadruplex DNA [33]): 588 nm
- Drug uptake [34]: Active
- Activity (Quadruplex DNA [35]): 493 nm
- Drug uptake [36]: Not Active
- Activity (Quadruplex DNA [37]): 500 nm
